From patent US11230547B2, “Purine inhibitors of human phosphatidylinositol 3-kinase delta” (Merck Sharp & Dohme Corp., priority 2017, dated 2022) come the findings set out here.

For assay [1], the target named is PI3Kalpha (Homo sapiens (Human), UniProt P42336). In words: HTRF PI3K biochemical assay, alpha isoform (selectivity versus delta). The note with it: relative ratio PI3K-alpha IC50 value / PI3K-delta IC50 value. An excerpt: (§1) HTRF PI3K Biochemical Assay to Measure Intrinsic Potency of Compound Inhibitors
(§2) The PI3-Kinase biochemical assays were developed to measure the intrinsic potency and compound dependent inhibition of the alpha, beta, delta, and gamma PI3K isoform enzymes. This assay was developed and further optimized from a kit produced by Upstate (Millipore catalog #33-047) (Millipore Sigma, Billerica Mass., USA) and has been configured for high throughput screening (HTS) and structure-activity relationship (SAR) screening. Briefly, this procedure exploits the exquisite specificity and high affinity binding of […] phosphatidyl(3,4,5)triphosphate (PIP3) to the GRP1 pleckstrin homology (PH) domain to generate the signal. In the absence of PIP3, an HTRF (Homogeneous Time-Resolved Fluorescence energy transfer) complex is formed consisting of europium (u)-labeled anti-GST, GST tagged GRP1-PH domain, biotin-PIP3 (biotinylated-PIP3) and streptavidin conjugated APC (Allophycocyanin). The native PIP3 produced by PI3-Kinase activity disrupts in a competitive manner the biotin-PIP3 from the pleckstrin homology (PH) domain, resulting in the loss of energy transfer (HTRF complex) and a decrease in the signal. The format of this assay is the same for all 4 isoforms of PI3K; the differences lie in the concentration of enzyme used to achieve robust assay window. The alpha, beta, and delta assays are run at 0.5, 1, and 0.3 nM enzymes and the gamma assay is run at 5 nM enzyme. The ATP concentration is 100 uM in the alpha, beta, and delta assays and 50 uM adenosine triphosphate (ATP) in the gamma assay. All reactions are run at 5 uM PIP2.
(§3) Compounds are serially diluted (3-fold in 100% DMSO) across a 384-well polypropylene source plated from column 3 to column 12 and column 13 to column 22, to yield 10 concentration dose response for each test compound. Columns 1, 2, 23 and 24 contain either only DMSO or pharmacological known control inhibitor. Once titrations are made, 2.5 nL of the compounds on 384 well plates are reformatted and transferred by acoustic dispense in quadruplicates to a 1536 assay plate (Greiner) to assay across all four PI3K isoform enzymes.
(§4) The PI3-Kinase biochemical assay was optimized using the HTRF kit provided by Upstate (Millipore). The assay kit contains six reagents: 1) 4× Reaction Buffer; 2) native PIP2 (substrate); 3) Stop (EDTA); 4) Detection Mix A (Streptavidin-APC); 5) Detection Mix B (Eu-labeled Anti-GST plus GST-tagged PH-domain); 6) Detection Mix C. In addition, the following items were obtained or purchased; PI3Kinase (catalog #'s alpha 14-602, beta 14-603, gamma 14-558 and delta 14-604 from Upstate Biotechnology now EMD Millipore, Mahopac, N.Y., USA), dithiothreitol (Sigma-Aldrich Corp. (St. Louis, Mo., USA) Catalog #D-5545), Adenosine-5′ triphosphate (InVitrogen (Waltham, Mass., USA), Cat#AS001A), native PIP3 (PI(3,4,5)P3, diC8, H^+, CELLSIGNALS, INC., (Columbus, Ohio, USA) Cat #907) DMSO ((Sigma-Aldrich Corp. (St. Louis, Mo., USA) Catalog #472301).
(§5) PI3Kinase Reaction Buffer is prepared by dilution the stock 1:4 with de-ionized water. DTT (DL-Dithiothreitol), phosphatidylinositol 4,5-bisphosphate (PIP2) and Biotin-PIP3 were added to 1536 assay plate at a final concentration of 5 mM, […] and 25 nM on the day of use. Enzyme addition and compound pre-incubation are initiated by the addition of 1.25 ul of PI3K (at twice its final concentration) in the 1× reaction buffer to all wells using a BioRaptr™ (Beckman Coulter, Waltham, Mass. USA). Plates are incubated at room temperature for 15 minutes. Reactions are initiated by addition of 1.25 ul of 2× substrate solution (PIP2 and ATP in 1× reaction buffer) using BioRaptr™. Plates are incubated in humidified chamber at room temperature for one hour. Reactions are quenched by addition of 0.625 uL of stop solution to all wells using the BioRaptr™. […]
On the technique in general: TR-FRET usually uses a lanthanide donor and a delayed reading to cut background.

Assay [2] has as its target PI3Kdelta (Homo sapiens (Human), UniProt O00329). In words: HTRF PI3K biochemical assay, delta isoform. The note with it: 0.3 nM enzyme, 100 uM ATP, 5 uM PIP2, form screened per table.
From the text: as §1, §2, §3, §4, §5

Molecules are shown by their SMILES.

Chain of PI3Kalpha (P42336 whole entry, canonical isoform): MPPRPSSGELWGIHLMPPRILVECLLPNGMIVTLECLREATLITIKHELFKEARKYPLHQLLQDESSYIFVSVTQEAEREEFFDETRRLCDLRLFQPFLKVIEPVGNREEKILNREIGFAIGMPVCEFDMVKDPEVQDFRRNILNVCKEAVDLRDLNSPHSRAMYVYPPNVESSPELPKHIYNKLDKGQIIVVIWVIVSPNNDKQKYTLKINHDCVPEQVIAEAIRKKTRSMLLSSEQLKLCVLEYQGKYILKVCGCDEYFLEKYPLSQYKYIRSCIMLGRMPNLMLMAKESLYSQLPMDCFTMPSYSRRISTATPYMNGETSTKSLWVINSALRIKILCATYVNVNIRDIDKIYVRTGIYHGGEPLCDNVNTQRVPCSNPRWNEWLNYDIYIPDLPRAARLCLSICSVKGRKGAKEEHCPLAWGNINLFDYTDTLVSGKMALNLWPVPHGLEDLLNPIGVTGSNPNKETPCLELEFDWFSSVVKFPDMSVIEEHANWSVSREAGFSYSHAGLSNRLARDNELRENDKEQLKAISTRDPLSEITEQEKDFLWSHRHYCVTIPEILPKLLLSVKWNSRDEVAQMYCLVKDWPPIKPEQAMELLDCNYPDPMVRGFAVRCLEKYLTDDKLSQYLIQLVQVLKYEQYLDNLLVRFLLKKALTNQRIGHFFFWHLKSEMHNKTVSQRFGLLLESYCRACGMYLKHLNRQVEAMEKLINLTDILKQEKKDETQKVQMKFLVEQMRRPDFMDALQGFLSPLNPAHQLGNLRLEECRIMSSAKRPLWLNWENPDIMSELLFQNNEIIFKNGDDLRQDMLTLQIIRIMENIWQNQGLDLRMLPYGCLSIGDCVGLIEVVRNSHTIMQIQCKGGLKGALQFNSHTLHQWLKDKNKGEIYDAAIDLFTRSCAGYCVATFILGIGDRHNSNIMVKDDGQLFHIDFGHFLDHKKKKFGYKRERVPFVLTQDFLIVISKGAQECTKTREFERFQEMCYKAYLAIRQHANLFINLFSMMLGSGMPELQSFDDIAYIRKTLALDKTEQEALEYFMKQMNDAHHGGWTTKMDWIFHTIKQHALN
Chain of PI3Kalpha (P27986 whole entry partner, canonical isoform): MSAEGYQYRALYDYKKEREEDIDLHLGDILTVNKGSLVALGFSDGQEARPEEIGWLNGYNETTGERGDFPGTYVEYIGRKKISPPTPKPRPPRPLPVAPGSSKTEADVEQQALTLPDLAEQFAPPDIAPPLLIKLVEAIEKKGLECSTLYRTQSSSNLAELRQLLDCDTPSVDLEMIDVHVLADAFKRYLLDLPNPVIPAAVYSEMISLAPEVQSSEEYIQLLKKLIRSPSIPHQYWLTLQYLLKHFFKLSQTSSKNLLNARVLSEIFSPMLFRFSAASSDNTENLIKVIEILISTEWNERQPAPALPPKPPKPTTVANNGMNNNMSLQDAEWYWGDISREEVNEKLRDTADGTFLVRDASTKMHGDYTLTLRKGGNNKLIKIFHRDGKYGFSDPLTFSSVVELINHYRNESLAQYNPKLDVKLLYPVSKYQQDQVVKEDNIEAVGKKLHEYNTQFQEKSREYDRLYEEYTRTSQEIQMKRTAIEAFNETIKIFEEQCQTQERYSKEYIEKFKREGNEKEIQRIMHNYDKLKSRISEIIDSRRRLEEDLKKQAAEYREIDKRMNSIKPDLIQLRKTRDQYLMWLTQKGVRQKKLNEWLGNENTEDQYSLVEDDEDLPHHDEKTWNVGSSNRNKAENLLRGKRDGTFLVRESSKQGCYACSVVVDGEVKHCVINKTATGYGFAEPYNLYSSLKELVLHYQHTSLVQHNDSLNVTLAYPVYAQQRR
Chain of PI3Kdelta (O00329 whole entry, canonical isoform): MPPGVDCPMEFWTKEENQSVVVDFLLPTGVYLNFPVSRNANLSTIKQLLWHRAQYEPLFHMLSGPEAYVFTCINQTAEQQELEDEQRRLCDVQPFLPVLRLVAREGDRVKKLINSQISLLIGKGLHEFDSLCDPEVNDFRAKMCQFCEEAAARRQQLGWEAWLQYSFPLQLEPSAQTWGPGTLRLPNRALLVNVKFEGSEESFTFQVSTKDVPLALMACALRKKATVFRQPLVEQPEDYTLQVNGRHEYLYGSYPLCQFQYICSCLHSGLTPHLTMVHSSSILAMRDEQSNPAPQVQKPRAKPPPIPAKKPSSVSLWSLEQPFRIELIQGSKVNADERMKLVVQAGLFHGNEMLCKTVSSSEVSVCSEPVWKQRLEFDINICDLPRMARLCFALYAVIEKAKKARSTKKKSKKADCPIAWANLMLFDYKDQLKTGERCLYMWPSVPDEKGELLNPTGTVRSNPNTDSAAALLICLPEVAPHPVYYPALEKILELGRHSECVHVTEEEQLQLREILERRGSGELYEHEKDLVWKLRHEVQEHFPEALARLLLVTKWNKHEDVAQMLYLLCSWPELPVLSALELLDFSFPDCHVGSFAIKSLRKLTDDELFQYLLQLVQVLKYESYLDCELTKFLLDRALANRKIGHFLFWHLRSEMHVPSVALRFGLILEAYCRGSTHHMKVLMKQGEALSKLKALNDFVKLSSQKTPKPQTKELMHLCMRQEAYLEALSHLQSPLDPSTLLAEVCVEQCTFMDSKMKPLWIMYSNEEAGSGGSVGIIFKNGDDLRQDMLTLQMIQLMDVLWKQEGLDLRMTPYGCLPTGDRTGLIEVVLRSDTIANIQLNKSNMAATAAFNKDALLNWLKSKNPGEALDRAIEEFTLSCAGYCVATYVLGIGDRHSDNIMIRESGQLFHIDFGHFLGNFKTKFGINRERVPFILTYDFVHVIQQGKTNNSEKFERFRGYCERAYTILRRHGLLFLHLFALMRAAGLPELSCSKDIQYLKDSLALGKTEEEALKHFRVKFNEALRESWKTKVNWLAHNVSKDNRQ
Chain of PI3Kdelta (P27986 whole entry partner, canonical isoform): as the sequence (P27986 whole entry partner, canonical isoform) above

As usually defined, the IC50 is the midpoint of a concentration-inhibition curve. For the compound `Cn1cc(-c2ncc(C#N)c(N3CC4C[C@H]3CN4c3cccc(C#N)c3)n2)cn1` (stereo in doubt) [Compound 1-1, 4-[(1S,4R)-5-(3-cyanophenyl)-2,5-diazabicyclo[2.2.1]hept-2-yl]-2-(1-methyl-1H-pyrazol-4-yl)pyrimidine-5-carbonitrile], the “Selectivity versus PI3Kalpha” value in assay [1] is more than 10. The IC50 in assay [2] amounted to 69 nM.

`N#Cc1cnc(-c2cnn3ccccc23)nc1N1C[C@@H]2CC1CN2c1cccc(F)c1` (stereo in doubt) [Compound 1-2, 4-[(1R,4S)-5-(3-fluorophenyl)-2,5-diazabicyclo[2.2.1]hept-2-yl]-2-pyrazolo[1,5-a]pyridin-3-ylpyrimidine-5-carbonitrile]: in assay [1], the “Selectivity versus PI3Kalpha” value is recorded as more than 10. The compound further displayed an IC50 in assay [2] of 51 nM.

Regarding `N#Cc1cnc(N2Cc3cn[nH]c3C2)nc1N1CC2C[C@H]1CN2c1cccc(F)c1` (stereo in doubt) [Compound 1-3, 2-(4,6-dihydropyrrolo[3,4-c]pyrazol-5(1H)-yl)-4-[(1S,4R)-5-(3-fluorophenyl)-2,5-diazabicyclo[2.2.1]hept-2-yl]pyrimidine-5-carbonitrile], in assay [1], the “Selectivity versus PI3Kalpha” value is listed as more than 10. In assay [2], this compound displayed an IC50 of 86 nM.

With `Cn1cc(-c2ncc(C#N)c(N3CC4C[C@H]3CN4c3ccc(C(F)F)nc3)n2)cn1` (stereo in doubt) [Compound 1-4, 4-{(1S,4R)-5-[6-(difluoromethyl)pyridin-3-yl]-2,5-diazabicyclo[2.2.1]hept-2-yl}-2-(1-methyl-1H-pyrazol-4-yl)pyrimidine-5-carbonitrile], in assay [1], the “Selectivity versus PI3Kalpha” value was more than 10. This compound also returned a half-maximal inhibitory concentration (IC50) in assay [2] of 540 nM.

For the compound `Cn1cc(-c2ncc(C#N)c(N3CC4C[C@H]3CN4c3cccc(C(C)(C)O)c3)n2)cn1` (stereo in doubt) [Compound 1-5, 4-{(1S,4R)-5-[3-(1-hydroxy-1-methylethyl)phenyl]-2,5-diazabicyclo[2.2.1]hept-2-yl}-2-(1-methyl-1H-pyrazol-4-yl)pyrimidine-5-carbonitrile], the “Selectivity versus PI3Kalpha” value in assay [1] was more than 10. In assay [2], this compound had an IC50 of 220 nM.

Consider `Cn1cc(-c2ncc(C#N)c(N3CC4C[C@H]3CN4c3cccnc3)n2)cn1` (stereo in doubt) [Compound 1-6, 2-(1-methyl-1H-pyrazol-4-yl)-4-[(1S,4R)-5-pyridin-3-yl-2,5-diazabicyclo[2.2.1]hept-2-yl]pyrimidine-5-carbonitrile], for which the “Selectivity versus PI3Kalpha” value in assay [1] is reported as more than 10. The compound further returned a 50% inhibitory concentration (IC50) in assay [2] of 110 nM.

Regarding `Cn1cc(-c2ncc(C#N)c(N3CC4C[C@H]3CN4c3cccc(OCCF)c3)n2)cn1` (stereo in doubt) [Compound 1-8, 4-{(1S,4R)-5-[3-(2-fluoroethoxy)phenyl]-2,5-diazabicyclo[2.2.1]hept-2-yl}-2-(1-methyl-1H-pyrazol-4-yl)pyrimidine-5-carbonitrile], the “Selectivity versus PI3Kalpha” value in assay [1] is on record as more than 10. Also, the IC50 in assay [2] was found to be 79 nM.

Take `Cn1cc(-c2ncc(C#N)c(N3CC4C[C@H]3CN4c3cccc(-n4cccc4)c3)n2)cn1` (stereo in doubt) [Compound 1-9, 2-(1-methyl-1H-pyrazol-4-yl)-4-{(1S,4R)-5-[3-(1H-pyrrol-1-yl)phenyl]-2,5-diazabicyclo[2.2.1]hept-2-yl}pyrimidine-5-carbonitrile]: in assay [1], the “Selectivity versus PI3Kalpha” value is on record as more than 10. Further, in assay [2], the IC50 was determined as 90 nM.

Regarding `Cn1cc(-c2ncc(C#N)c(N3CC4C[C@H]3CN4c3cccc([N+](=O)[O-])c3)n2)cn1` (stereo in doubt) [Compound 1-10, 2-(1-methyl-1H-pyrazol-4-yl)-4-[(1S,4R)-5-(3-nitrophenyl)-2,5-diazabicyclo[2.2.1]hept-2-yl]pyrimidine-5-carbonitrile], the “Selectivity versus PI3Kalpha” value in assay [1] is recorded as more than 10.

As to `Cn1cc(-c2ncc(C#N)c(N3CC4C[C@H]3CN4c3cccc(C4CC4)c3)n2)cn1` (stereo in doubt) [Compound 1-11, 4-[(1S,4R)-5-(3-cyclopropylphenyl)-2,5-diazabicyclo[2.2.1]hept-2-yl]-2-(1-methyl-1H-pyrazol-4-yl)pyrimidine-5-carbonitrile], the “Selectivity versus PI3Kalpha” value in assay [1] is more than 10. Besides, the IC50 in assay [2] is 130 nM.

As to `Cn1cc(-c2ncc(C#N)c(N3CC4C[C@H]3CN4c3cccc(C4(C)CC4)c3)n2)cn1` (stereo in doubt) [Compound 1-12, 4-{(1S,4R)-5-[3-(1-methylcyclopropyl)phenyl]-2,5-diazabicyclo[2.2.1]hept-2-yl}-2-(1-methyl-1H-pyrazol-4-yl)pyrimidine-5-carbonitrile], the “Selectivity versus PI3Kalpha” value in assay [1] was more than 10. For the same compound, the IC50 in assay [2] amounted to 410 nM.

Take `CNC(=O)c1cccc(N2C[C@@H]3CC2CN3c2nc(-c3cnn(C)c3)ncc2C#N)c1` (stereo in doubt) [Compound 1-13, 3-{(1R,4S)-5-[5-cyano-2-(1-methyl-1H-pyrazol-4-yl)pyrimidin-4-yl]-2,5-diazabicyclo[2.2.1]hept-2-yl}-N-methylbenzamide]: in assay [1], the “Selectivity versus PI3Kalpha” value is more than 10. Also, the IC50 in assay [2] is 97 nM.

As for `COc1cccc(N2C[C@@H]3CC2CN3c2nc(-c3cnn(C)c3)ncc2C#N)c1` (stereo in doubt) [Compound 1-14, 4-[(1S,4R)-5-(3-methoxyphenyl)-2,5-diazabicyclo[2.2.1]hept-2-yl]-2-(1-methyl-1H-pyrazol-4-yl)pyrimidine-5-carbonitrile], in assay [1], the “Selectivity versus PI3Kalpha” value is given as more than 10. In addition, the IC50 in assay [2] amounted to 71 nM.

With `Cn1cc(-c2ncc(C#N)c(N3CC4C[C@H]3CN4c3cccc(S(C)(=O)=O)c3)n2)cn1` (stereo in doubt) [Compound 1-15, 2-(1-methyl-1H-pyrazol-4-yl)-4-{(1S,4R)-5-[3-(methylsulfonyl)phenyl]-2,5-diazabicyclo[2.2.1]hept-2-yl}pyrimidine-5-carbonitrile], the “Selectivity versus PI3Kalpha” value in assay [1] was more than 10. In assay [2], 27 nM corresponded to half-maximal inhibition (IC50).

Turning to `N#Cc1cnc(-c2ccnc3[nH]ccc23)nc1N1C[C@@H]2CC1CN2c1cccc(F)c1` (stereo in doubt) [Compound 1-17, 4-[(1R,4S)-5-(3-fluorophenyl)-2,5-diazabicyclo[2.2.1]hept-2-yl]-2-(1H-pyrrolo[2,3-b]pyridin-4-yl)pyrimidine-5-carbonitrile], the “Selectivity versus PI3Kalpha” value in assay [1] is on record as more than 10. The IC50 in assay [2] came out at 56 nM.

Take `N#Cc1cnc(-c2cnc3[nH]ccc3c2)nc1N1C[C@@H]2CC1CN2c1cccc(F)c1` (stereo in doubt) [Compound 1-18, 4-[(1R,4S)-5-(3-fluorophenyl)-2,5-diazabicyclo[2.2.1]hept-2-yl]-2-(1H-pyrrolo[2,3-b]pyridin-5-yl)pyrimidine-5-carbonitrile]: the “Selectivity versus PI3Kalpha” value in assay [1] is on record as 8. This compound registered an IC50 in assay [2] of 920 nM.

Take `Cc1cncc(-c2ncc(C#N)c(N3C[C@@H]4CC3CN4c3cccc(F)c3)n2)c1` (stereo in doubt) [Compound 1-19, 4-[(1R,4S)-5-(3-fluorophenyl)-2,5-diazabicyclo[2.2.1]hept-2-yl]-2-(5-methylpyridin-3-yl)pyrimidine-5-carbonitrile]: the “Selectivity versus PI3Kalpha” value in assay [1] was more than 10. The compound also registered an IC50 in assay [2] of 290 nM.

Compound `Cn1cc(-c2ncc(C#N)c(N3C[C@H]4C[C@H]3CN4c3cccc([N+](=O)[O-])c3)n2)cn1` [Compound 1-10, 2-(1-methyl-1H-pyrazol-4-yl)-4-[(1S,4R)-5-(3-nitrophenyl)-2,5-diazabicyclo[2.2.1]hept-2-yl]pyrimidine-5-carbonitrile] yielded an IC50 in assay [2] of 38 nM.
